Reference: US5098934A, “Method of relieving pain with mercaptoalkanamides” (Roussel Uclaf, priority 1983, dated 1992)
pIC50: −log10 of the molar value.

Target: T1, Enkephalinase (Rattus norvegicus, UniProt P07861)
T1 construct: from tissue; host or cells: rat striatum, membrane (particulate) fraction
T1 sequence (P07861 1-750): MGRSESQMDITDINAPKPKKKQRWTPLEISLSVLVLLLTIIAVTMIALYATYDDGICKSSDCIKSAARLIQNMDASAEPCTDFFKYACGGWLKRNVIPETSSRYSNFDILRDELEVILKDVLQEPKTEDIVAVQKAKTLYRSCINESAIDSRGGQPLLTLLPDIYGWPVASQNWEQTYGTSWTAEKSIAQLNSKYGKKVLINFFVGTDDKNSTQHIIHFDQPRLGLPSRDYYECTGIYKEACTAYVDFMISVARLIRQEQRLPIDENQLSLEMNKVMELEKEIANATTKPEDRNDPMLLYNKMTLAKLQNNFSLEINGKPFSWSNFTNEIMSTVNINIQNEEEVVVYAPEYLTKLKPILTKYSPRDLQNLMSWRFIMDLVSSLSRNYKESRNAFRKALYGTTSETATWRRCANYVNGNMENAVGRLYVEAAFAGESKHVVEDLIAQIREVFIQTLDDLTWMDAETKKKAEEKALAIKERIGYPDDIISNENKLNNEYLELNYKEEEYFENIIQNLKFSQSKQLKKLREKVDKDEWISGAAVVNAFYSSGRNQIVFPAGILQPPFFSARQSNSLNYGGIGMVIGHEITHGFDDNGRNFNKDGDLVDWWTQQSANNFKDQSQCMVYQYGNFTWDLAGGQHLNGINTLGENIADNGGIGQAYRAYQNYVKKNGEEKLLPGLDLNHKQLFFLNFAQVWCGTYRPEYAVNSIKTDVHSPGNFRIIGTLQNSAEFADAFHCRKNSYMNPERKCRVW
Assay: Inhibition of enkephalinase (rat striatum membrane fraction, tritiated leucine-enkephaline)
Format: biochemical, rats
Details: 20 nanomole tritiated leucine-enkephaline, 1 mM puromycin, 25° C., 15 minutes, pH 7.4, read-out: Enkaphalinase inhibition CI50 (50% inhibitory concentration)
Description: Enkephalinase activity was determined in a striatum membrane fraction of rats. The striatum was placed in ice and was homogenized in buffered 0.05M Tris with a pH of 7.4 (20 times the volume) and after a first centrifugation at 1000 g, the particular fraction obtained was subjected to two centrifugations for 10 minutes at 20,000 g. The culot was then suspended in buffered Tris and kept at 4° C. The amount of proteins was determined by the Comassie blue method.
After preincubation at 25° C. for 15 minutes, an aliquot of proteins was incubated at 25° C. for 15 minutes in the presence of 20 nanomole of tritiated leucine-enkephaline (against the first amino acid) previously purified, of 1 mM of puromycin and the test product in buffered Tris. The hydrolysis reaction was stopped by addition of 0.2N hydrochloric acid and the incubate was subjected to a deproteinization by heating at 95° C. for 15 minutes. Under these conditions, the kinetic reaction was linear. The tritiated metabolites obtained by hydrolysis were separated from enkephaline by chromatography over a column of porapak Q and elution with buffered Tris whereby enkephaline was retained in the column and was released in the following ethanolic phase. The activity of the different products was expressed in 50% inhibitory concentration called CI50 in Table II.

pIC50	SMILES
6.00	O=C(Nc1ccc(Cl)cc1)C(CS)Cc1ccccc1 (stereo not drawn) [Example 4, N-(4-chlorophenyl)-α-mercaptomethyl-benzene-propanamide]
7.30	COc1ccc(NC(=O)C(CS)Cc2ccccc2)cc1 (stereo not drawn) [Example 36, N-(4-methoxyphenyl) α-(mercaptomethyl)-benzene-propanamide]
6.00	CC(=O)SCC(Cc1ccccc1)C(=O)Nc1ccc(Cl)cc1 (stereo not drawn) [Example 3, Ethanethioate of S-[3-(4-chlorophenylamino)-3-oxo-2-benzylpropyl]]
5.00	CC(=O)SCC(Cc1ccccc1)C(=O)Nc1ccccc1 (stereo not drawn) [Example 1, Ethanethioate of S-[3-oxo-3-phenylamino-2-benzyl-propyl]]

The next lines start with the compound.

SMILES	pIC50
COc1cccc(NC(=O)C(CS)Cc2ccccc2)c1 (stereo not drawn) [Example 38, N-(3-methoxyphenyl) α-(mercaptomethyl)-benzene-propanamide]	7.22
O=C(Nc1ccccc1)C(CS)Cc1ccccc1 (stereo not drawn) [Example 2, α-mercaptomethyl-N-phenyl-benzene propanamide]	6.00
O=C(Nc1ccncc1)C(CS)Cc1ccccc1 (stereo not drawn) [Example 30, N-(4-pyridinyl) α-(mercaptomethyl)-benzene-propanamide]	7.00
